In one series the test system is Human alphaherpesvirus 1. Description: Antiviral activity against Herpes simplex virus type 1 infected in HEL cells. It is filed as functional, organism-based.
The test system of the next series is Human respirovirus 3. Briefly: Antiviral activity against Parainfluenza virus type 3 infected in african green monkey Vero cells. It counts as functional, organism-based.
In series [1] the test system is Coxsackievirus B4. Description: Antiviral activity against Coxsackievirus B4 infected in african green monkey Vero cells. It counts as functional, organism-based.
The subject of a further series is Vaccinia virus. Description: Antiviral activity against Vaccinia virus infected in HEL cells. It is filed as functional, organism-based. To be noted: Orthopoxvirus vaccinia.
The nature of series [2]: Selectivity index, ratio of CC50 for human CEM cells to EC50 for HIV1 3B. To be noted: read-out: Ratio CC50/EC50. It is filed as toxicity, cell-based, CCRF-CEM.
The test system of a further series is Human alphaherpesvirus 2. Description: Antiviral activity against Herpes simplex virus type 2 infected in HEL cells. It counts as functional, organism-based.
Series [3] deals with Vesicular stomatitis virus. Description: Antiviral activity against Vesicular stomatitis virus infected in HEL cells. It counts as functional, organism-based.
The test system of series [4] is Vesicular stomatitis virus. Briefly: Antiviral activity against Vesicular stomatitis virus infected in human HeLa cells. It is filed as functional, organism-based.
The subject of the next series is Feline coronavirus. Briefly: Antiviral activity against Feline coronavirus infected in crandel feline kidney cells. It is filed as functional, organism-based.
The subject of series [5] is Coxsackievirus B4. Briefly: Antiviral activity against Coxsackievirus B4 infected in human HeLa cells. It counts as functional, organism-based.
Series [6] deals with Influenza A virus. Description: Antiviral activity against Influenza virus type A H1N1 infected in MDCK cells. It counts as functional, organism-based.
The subject of series [7] is Mammalian orthoreovirus 1. Briefly: Antiviral activity against Reovirus 1 infected in african green monkey Vero cells. It is filed as functional, organism-based.
A further series has as its system Influenza B virus. Briefly: Antiviral activity against Influenza virus type B infected in MDCK cells. It counts as functional, organism-based.
Series [8] has as its system Respiratory syncytial virus. Description: Antiviral activity against Respiratory syncytial virus infected in human HeLa cells. It is filed as functional, organism-based.
Series [9] has as its system Human immunodeficiency virus 1. Description: Antiviral activity against HIV1 3B infected in human CEM cells assessed as inhibition of virus-induced cytopathicity after 4 days. To be noted: Human immunodeficiency virus 1, 3B, CCRF-CEM, 96 h. It counts as functional, organism-based. On the technique in general: Cytopathic effects are the visible damage that an infection or toxin causes in cultured cells.

Series [10] relates to Human immunodeficiency virus 2. Briefly: Antiviral activity against HIV2 ROD infected in human CEM cells assessed as inhibition of virus-induced cytopathicity after 4 days. To be noted: Human immunodeficiency virus 2, ROD, CCRF-CEM, 96 h. It is filed as functional, organism-based.
The subject of series [11] is Influenza A virus. Description: Antiviral activity against Influenza virus type A H3N2 infected in MDCK cells. It is filed as functional, organism-based.
Another series deals with Punta Toro virus. Briefly: Antiviral activity against Punta Toro virus infected in african green monkey Vero cells. It counts as functional, organism-based.
The next series relates to Sindbis virus. Description: Antiviral activity against Sindbis virus infected in african green monkey Vero cells. It counts as functional, organism-based.
A further series concerns CCRF-CEM. Briefly: Cytotoxicity against HIV-infected human CEM cells. It is filed as cell-based. To be noted: ccrf-cem.

The source made the active and inactive calls. No cut-off for these calls is given here. A value given as a limit tells only on which side of the number the result lay.

For the compound `Cc1ccnc(N2C(=O)CSC2CC23CC4CC(CC(C4)C2)C3)c1` (stereo not given), the outcome (in the series on Human alphaherpesvirus 1; in the series with Human respirovirus 3; with Coxsackievirus B4 [1]; with Vaccinia virus; in the series with Human alphaherpesvirus 2; in series [3]) was inactive. Also, the result (in series [4]; with Feline coronavirus; in the series on Coxsackievirus B4 [5]; in the series with Influenza A virus [6]; in [7]; in the series on Influenza B virus) was inactive. Moreover, the result (in series [8]; with Influenza A virus [11]; in the series with Punta Toro virus; in the series on Sindbis virus) was inactive. In series [2], the selectivity ratio is 1.6. Also, the EC50 (usually the concentration giving half of the maximal effect) in [9] is 18.1 µM; in series [10] it was 21.9 µM. Also, the midpoint of cytotoxicity in the series on CCRF-CEM, the CC50, lay at 29.3 µM.
Regarding `Cc1ccnc(N2C(=O)CSC2CC23CC4CC(CC(C4)C2)C3)n1` (stereo not given), the outcome (in the series on Human alphaherpesvirus 1; in the series with Human respirovirus 3; with Coxsackievirus B4 [1]; in the series on Vaccinia virus; with Human alphaherpesvirus 2; in [3]) was inactive. Moreover, the outcome (in [4]; in the series on Feline coronavirus; in the series with Coxsackievirus B4 [5]; with Influenza A virus [6]; in series [7]; in the series with Influenza B virus) was inactive. Besides, the result (in [8]; in the series with Influenza A virus [11]; with Punta Toro virus; in the series with Sindbis virus) was inactive. Moreover, the selectivity ratio in series [2] was under 2.3. Moreover, the EC50 in [9] was at least 11.6 µM; in series [10], 23.5 µM. The midpoint of cytotoxicity with CCRF-CEM, the CC50, lay at 27.3 µM.
`Cc1ccnc(N2C(=O)CSC2C23CC4CC(CC(C4)C2)C3)n1` (stereo not given): the outcome (with Human alphaherpesvirus 1; with Human respirovirus 3; in the series on Coxsackievirus B4 [1]; with Vaccinia virus; in the series on Human alphaherpesvirus 2; in series [3]) was inactive. The result (in series [4]; in the series with Feline coronavirus; in the series on Coxsackievirus B4 [5]; in the series on Influenza A virus [6]; in series [7]; with Influenza B virus) was inactive. The result (in series [8]; in the series with Influenza A virus [11]; in the series with Punta Toro virus; with Sindbis virus) was inactive. The selectivity ratio in [2] is 30. The EC50 in series [9] was 4.5 µM; in [10], over 60.7 µM. In addition, the 50% cytotoxic concentration (CC50) – broadly, the concentration giving 50% cytotoxicity – with CCRF-CEM worked out at 136 µM.
Regarding `CN(C)CCN1C(=O)CSC1CC12CC3CC(CC(C3)C1)C2` (stereo not given), the result (in the series with Human alphaherpesvirus 1; in the series on Human respirovirus 3; in the series on Coxsackievirus B4 [1]; with Vaccinia virus; with Human alphaherpesvirus 2; in series [3]) was inactive. In addition, the result (in series [4]; in the series on Feline coronavirus; in the series on Coxsackievirus B4 [5]; with Influenza A virus [6]; in series [7]; with Influenza B virus) was inactive. For the same compound, the result (in series [8]; in the series with Influenza A virus [11]; in the series with Punta Toro virus; with Sindbis virus) was inactive. Also, the selectivity ratio in [2] is under 1.4. In addition, the values for the concentration for a half-maximal effect (EC50) in series [9] and in [10] were 53 µM and at least 62 µM, respectively. Moreover, the midpoint of cytotoxicity in the series on CCRF-CEM, the CC50, lay at 77 µM.
Turning to `Cc1cc(C)nc(N2C(=O)CSC2CC23CC4CC(CC(C4)C2)C3)c1` (stereo not given), the outcome (with Human alphaherpesvirus 1; with Human respirovirus 3; in the series on Coxsackievirus B4 [1]; with Vaccinia virus; in the series with Human alphaherpesvirus 2; in series [3]) was inactive. The result (in series [4]; in the series on Feline coronavirus; with Coxsackievirus B4 [5]; in the series on Influenza A virus [6]; in series [7]; with Influenza B virus) was inactive. In addition, the result (in series [8]; with Influenza A virus [11]; with Punta Toro virus; in the series with Sindbis virus) was inactive. For the same compound, the selectivity ratio in series [2] was under 2. In addition, the EC50 in series [9] is over 54 µM; in series [10] it was at least 54 µM. Further, the CC50 in the series on CCRF-CEM was 115 µM.
Regarding `Cc1cc(Cl)nc(N2C(=O)CSC2C23CC4CC(CC(C4)C2)C3)n1` (stereo not given), the result (with Human alphaherpesvirus 1; in the series with Human respirovirus 3; with Coxsackievirus B4 [1]; in the series on Vaccinia virus; in the series with Human alphaherpesvirus 2; in series [3]) was inactive. In addition, the result (in series [4]; in the series with Feline coronavirus; in the series on Coxsackievirus B4 [5]; in the series with Influenza A virus [6]; in series [7]; in the series with Influenza B virus) was inactive. In addition, the result (in [8]; in the series on Influenza A virus [11]; with Punta Toro virus; in the series with Sindbis virus) was inactive. Moreover, the selectivity ratio in series [2] is under 5. The EC50 was at least 54.9 µM in [9] and 120 µM in series [10]. Moreover, in the series with CCRF-CEM, the CC50 is over 275 µM.
With `Cc1cc(N2C(=O)CSC2CC23CC4CC(CC(C4)C2)C3)nc(C)n1` (stereo not given), the outcome (in the series on Human alphaherpesvirus 1; in the series with Human respirovirus 3; in the series with Coxsackievirus B4 [1]; in the series on Vaccinia virus; in the series with Human alphaherpesvirus 2; in series [3]) was inactive. Also, the result (in series [4]; in the series with Feline coronavirus; in the series on Coxsackievirus B4 [5]; in the series with Influenza A virus [6]; in [7]; with Influenza B virus) was inactive. For the same compound, the result (in series [8]; in the series on Influenza A virus [11]; in the series on Punta Toro virus; in the series with Sindbis virus) was inactive. In addition, the selectivity ratio in series [2] was under 1.9. Further, the EC50 in [9] and in series [10] was at least 11.2 µM throughout. The CC50 with CCRF-CEM is 22.1 µM.

These data come from ChEMBL document CHEMBL1152844, “Synthesis and anti-HIV studies of 2- and 3-adamantyl-substituted thiazolidin-4-ones” (Eur J Med Chem, 2009).
